For series [1], the target named is Immunoglobulin lambda variable 6-57 (Homo sapiens, UniProt P01721, F49Y/T46L). The series can be described thus: Stabilization of AL patient derived fluorescein-labeled IGLV6-57 T46L/F49Y mutant measured after 24 hrs by proteolysis coupled-fluorescence polarization assay. (In general: Polarisation of emitted light reports the rotation of a fluorescent probe.)
Series [2] deals with Immunoglobulin lambda variable 6-57 (Homo sapiens, UniProt P01721). Kind of series: Stabilization of AL patient derived full length fluorescein-labeled IGLV6-57 expressed in Escherichia coli BL21 (DE3) measured after 24 hrs by proteolysis coupled-fluorescence polarization assay.
A short description of series [3]: Protein binding in human plasma at 2 uM after 4 hrs by UPLC-MS/MS analysis. It is filed as ADME, cell-free.
Series [4] is described as follows: Solubility of the compound. It is filed as physicochemical.

Bounds are passed on as bounds.

Immunoglobulin lambda variable 6-57 (Homo sapiens, UniProt P01721, F49Y/T46L), sequence (P01721 whole entry, looked up, stated change not applied): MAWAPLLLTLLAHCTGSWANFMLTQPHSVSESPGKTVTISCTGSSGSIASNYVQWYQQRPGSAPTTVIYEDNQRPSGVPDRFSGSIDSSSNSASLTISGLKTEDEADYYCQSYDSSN
Immunoglobulin lambda variable 6-57 (Homo sapiens, UniProt P01721), sequence (P01721 whole entry): as the sequence (P01721 whole entry, looked up, stated change not applied) above

As for `CCN(CC)c1ccc2c(C)c(CCN3C(=O)NC4(CCN(S(=O)(=O)c5ccccc5)C4)C3=O)c(=O)oc2c1` (stereo not given), the EC50 in series [1] stood at 0.648 µM; in series [2], 0.207 µM.
The like results for `Cc1cc(=O)oc2cc(OC(C)Cc3ccccc3)ccc12` (stereo not given) were, in that order, 1.38 µM and 2.97 µM.
On to `CCN(CC)c1ccc2c(C)c(CCN3C(=O)NC4(CCN(C(=O)c5ccc[nH]c5=O)C4)C3=O)c(=O)oc2c1` (stereo not given), for which the EC50 in series [1] was found to be 3.96 µM.
`CCN(CC)c1ccc2c(C)c(CCN3CC4(CCN(c5nccn6ccnc56)CC4)NC3=O)c(=O)oc2c1`: the EC50 in series [1] was determined as 0.0049 µM; in series [2], 0.0356 µM. For the same molecule, in series [3], the PPB is listed as greater than 99.5%.
Take `CCN(CC)c1ccc2c(C)c(CCOC(=O)NCc3cccc(-c4ccc[nH]c4=O)c3)c(=O)oc2c1`: the values for the EC50 in series [1] and in series [2] were 0.0262 µM and 0.151 µM, respectively.
In the same order, the values of `CCN(CC)c1ccc2c(C)c(CCN3C(=O)NC4(CCN(c5ncccn5)CC4)C3=O)c(=O)oc2c1` are 0.165 µM and 0.292 µM.
For the molecule `CCCN(CC)c1ccc2c(C)cc(=O)oc2c1`, the EC50 in series [2] is 7.89 µM.
Consider `CCN(CC)c1ccc2c(C)c(CCN3C(=O)NC4(CCN(c5nccn6ncnc56)CC4)C3=O)c(=O)oc2c1`, for which the EC50 in series [1] came out at 0.0552 µM; in series [2], 0.0711 µM.
As for `CCN(CC)c1ccc2c(C)c(CCOC(=O)NCCc3cccnc3)c(=O)oc2c1`, the figures for the EC50 in series [1] and in series [2] were 3.68 µM and 1.11 µM, respectively.
`CCN(C)c1ccc2c(C)cc(=O)oc2c1`: the EC50 in series [2] was determined as 18 µM.
Take `CCN(CC)c1ccc2c(C)c(CCOC(=O)NCc3ccccc3)c(=O)oc2c1`: the figures for the EC50 in series [1] and in series [2] were 0.317 µM and 0.302 µM, respectively.
In the same order, the values of `CCN(CC)c1ccc2c(C)c(CCN3C(=O)NC4(CCN(c5ncnc6[nH]cnc56)CC4)C3=O)c(=O)oc2c1` are 0.046 µM and 0.11 µM.
In the same order, the values of `CCN(CC)c1ccc2c(C)c(CCOC(=O)NCc3cccc(C(N)=O)c3)c(=O)oc2c1` are 0.228 µM and 0.15 µM.
As for `CCN(CC)c1ccc2c(C)c(CCN3C(=O)NC4(CCN(c5ncnc6[nH]cnc56)C4)C3=O)c(=O)oc2c1` (stereo not given), the EC50 in series [1] turned out to be 0.355 µM; in series [2], 0.551 µM.
In the same order, the values of `CCN(CC)c1ccc2c(C)c(CCN3CC4(CCN(c5ncccn5)CC4)NC3=O)c(=O)oc2c1` are 0.0135 µM and 0.0481 µM.
In the same order, the values of `CCN(CC)c1ccc2c(C)c(CCOC(=O)NCC3CCCNC3)c(=O)oc2c1` (stereo not given) are 8.8 µM and 1.69 µM.
In the same order, the values of `CCN(CC)c1ccc2c(C)c(CCN3C(=O)NC4(CCN(c5ncccn5)C4)C3=O)c(=O)oc2c1` (stereo not given) are 0.688 µM and 1.37 µM.
Consider `CCN(CC)c1ccc2c(C)c(CCN3C(=O)NC4(CCN(c5ncnc6[nH]ncc56)CC4)C3=O)c(=O)oc2c1`, for which the values for the EC50 in series [1] and in series [2] were 0.124 µM and 0.103 µM, respectively.
In the same order, the values of `CCN(CC)c1ccc2c(C)c(CCN3C(=O)NC4(CCN(c5nccn6ccnc56)CC4)C3=O)c(=O)oc2c1` are 0.0298 µM and 0.0624 µM.
In the same order, the values of `CCN(CC)c1ccc2c(C)c(CCN3CC4(CCN(c5ncnc6[nH]ncc56)CC4)NC3=O)c(=O)oc2c1` are 0.0047 µM and 0.0088 µM.
In the same order, the values of `CCN(CC)c1ccc2c(C)c(CCN3C(=O)NC4(CCN(S(=O)(=O)c5cccnc5)C4)C3=O)c(=O)oc2c1` (stereo not given) are 4.37 µM and 0.313 µM.
`CCN(CC)c1ccc2c(C)c(CCN3C(=O)NC4(CCN(C(=O)c5c[nH]cn5)C4)C3=O)c(=O)oc2c1` (stereo not given): the EC50 was 0.729 µM in series [1] and 0.855 µM in series [2].
For the molecule `CCN(CC)c1ccc2c(C)c(CCOC(=O)NCc3cccc(NC(C)=O)c3)c(=O)oc2c1`, the figures for the EC50 in series [1] and in series [2] were 0.194 µM and 0.289 µM, respectively.
The like results for `CCN(CC)c1ccc2c(C)c(CCOC(=O)N(C)CCc3cccnc3)c(=O)oc2c1` were, in that order, greater than 20 µM and 5.28 µM.
In the same order, the values of `Cc1cc(=O)oc2cc(OCC(C)c3ccccc3)ccc12` (stereo not given) are 0.444 µM and 0.558 µM.
The like results for `CCN(CC)c1ccc2c(C)c(CCOC(=O)NCc3cncc(NC(C)=O)c3)c(=O)oc2c1` were, in that order, 1.17 µM and 0.816 µM.
On to `CCN(CC)c1ccc2c(C)c(CCN3C(=O)NC4(CCN(C(=O)c5ccc[nH]c5=O)CC4)C3=O)c(=O)oc2c1`, for which the EC50 is 2.7 µM in series [1] and 3.97 µM in series [2].
Molecule `C#CCN(CC#C)c1ccc2c(C)cc(=O)oc2c1` had an EC50 in series [2] of 2 µM.
Same read-out and setting: in the case of `C#CCN(CC)c1ccc2c(C)cc(=O)oc2c1` it was 2.65 µM; in that of `CCN(c1ccc2c(C)cc(=O)oc2c1)C(C)C`, 9.7 µM.
As to `Cc1ccccc1C(C)Oc1ccc2c(C)cc(=O)oc2c1` (racemic), the solubility result in series [4] is listed as “Nd(Insoluble)”.
Consider `Cc1c(CCN2CC3(CCN(c4nccn5ccnc45)CC3)NC2=O)c(=O)oc2cc(OCC(C)c3ccccc3)ccc12` (stereo in doubt; 84a), for which the EC50 in series [1] stood at 0.0083 µM; in series [2] it was 0.0086 µM.
As for `Cc1c(CCN2CC3(CCN(c4nccn5ccnc45)CC3)NC2=O)c(=O)oc2cc(OCC(C)c3ccccc3)ccc12` (stereo in doubt; 84b), the EC50 in series [1] is 0.0039 µM; in series [2], 0.0115 µM.

The values above are taken from ChEMBL document CHEMBL4834435, “Discovery of Potent Coumarin-Based Kinetic Stabilizers of Amyloidogenic Immunoglobulin Light Chains Using Structure-Based Design” (J Med Chem, 2021).
